Calls of active or inactive are those of the source. No cut-off for these calls is given here.

For one experiment, the target named is Tryptase (Homo sapiens) (UniProt Q9BZJ3+Q15661+Q9NRR2). In words: Inhibitor specificity constant ki/Ki was evaluated for the compound against tryptase; NI means No inhibition. It counts as protein assay.
Experiment [1] deals with Coagulation factor X (Homo sapiens) (UniProt P00742). In words: Inhibitor specificity constant ki/Ki was evaluated for the compound against Factor Xa.
The target in a further experiment is Prothrombin (Homo sapiens, UniProt P00734). In words: Evaluated for inhibition against thrombin.
The target in experiment [2] is Serine protease 1 (Homo sapiens) (UniProt P07477). In words: The inhibitor specificity constant ki/Ki was evaluated for the compound against trypsin.
Serine protease 1 (Homo sapiens), sequence (P07477 whole entry): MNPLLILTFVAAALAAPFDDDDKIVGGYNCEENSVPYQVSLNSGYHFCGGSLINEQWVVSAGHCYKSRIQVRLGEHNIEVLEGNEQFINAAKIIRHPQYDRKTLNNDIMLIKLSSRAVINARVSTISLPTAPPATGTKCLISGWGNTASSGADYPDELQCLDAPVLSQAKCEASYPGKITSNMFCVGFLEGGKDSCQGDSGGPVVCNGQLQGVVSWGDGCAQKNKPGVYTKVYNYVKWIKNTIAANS

Coagulation factor X (Homo sapiens), sequence (P00742 41-179 limits assumed): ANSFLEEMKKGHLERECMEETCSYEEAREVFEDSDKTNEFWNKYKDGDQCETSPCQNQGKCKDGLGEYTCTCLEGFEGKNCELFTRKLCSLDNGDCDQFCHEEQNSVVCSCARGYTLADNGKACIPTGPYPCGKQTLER
Coagulation factor X (Homo sapiens), sequence (P00742 235-488 limits assumed): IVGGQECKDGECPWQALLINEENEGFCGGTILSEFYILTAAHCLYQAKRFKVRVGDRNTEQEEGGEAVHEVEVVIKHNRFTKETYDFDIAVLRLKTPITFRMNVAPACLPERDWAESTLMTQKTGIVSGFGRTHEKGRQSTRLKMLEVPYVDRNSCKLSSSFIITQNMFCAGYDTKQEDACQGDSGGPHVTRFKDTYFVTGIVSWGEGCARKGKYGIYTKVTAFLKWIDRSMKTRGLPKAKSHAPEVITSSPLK

For `COc1ccc(C(=O)OC[C@H](CCCN=C(N)N)NC(=O)[C@H](CCC(N)=O)NC(=O)[C@H](CCCN=C(N)N)NC(C)=O)cc1`, the ki/Ki result on Tryptase (Homo sapiens) was “inactive”.

As to `CC[C@H](C)[C@H](NC(=O)OC(C)(C)C)C(=O)N[C@@H](CCC(=O)O)C(=O)NCC(=O)N[C@@H](CCCN=C(N)N)COC(=O)c1ccc(OC)cc1`, the ki/Ki in experiment [1] is 0.075 M⁻¹ s⁻¹. As a reminder, the Ki is a measure of affinity in units of concentration, obtained from inhibition or displacement. A high value points to weaker binding. As to `COc1ccc(C(=O)OC[C@H](CCCN=C(N)N)NC(=O)[C@@H]2CCCN2C(=O)[C@@H](Cc2ccccc2)NC(=O)OC(C)(C)C)cc1`, affinity on Prothrombin was put at a Ki of 14 µM. In addition, the ki/Ki in experiment [2] turned out to be 0.0417 M⁻¹ s⁻¹.

These data come from ChEMBL document CHEMBL1129918, “Peptide argininol inverse substrates of anisic acid: Novel inhibitors of the trypsin-like serine proteinases” (Bioorg Med Chem Lett, 1997).
